The text below walks through data of publication PMC5066224, “A Novel Resveratrol Based Tubulin Inhibitor Induces Mitotic Arrest and Activates Apoptosis in Cancer Cells” (Scientific Reports, 2016).

By IC50 is commonly meant the concentration needed to halve the response being measured. A higher IC50 goes with lower potency.

Some results are limits rather than exact numbers.

Series [1] deals with A549. Briefly: Trypan blue dye exclusion cell viability assay. It is filed as cell-based. To be noted: Homo sapiens, 48 h. The procedure:
(§1) The effect of SS28 on viability of CEM, Reh, Nalm6, SUDHL8, Molt4, A549, HeLa 293T, mouse embryonic fibroblast (MEF) and PBMC was determined by trypan blue dye exclusion assay as described previously. Briefly, cells (0.75 × 10^5 cells/ml) were treated with increasing concentrations of SS28 (1, 5, 10 and 20, μM) for 48 and 72 h. DMSO treated cells were used as the vehicle control. Cells were harvested and subjected to trypan blue assay. Data from a minimum of three independent experiments is presented as a histogram with error bars.

Series [2] relates to CEM. Put plainly: Trypan blue dye exclusion cell viability assay. The note with it: Homo sapiens, CCRF-CEM, 48 h. It is filed as cell-based. The procedure: as §1
Series [3] deals with HeLa cells. Put plainly: Trypan blue dye exclusion cell viability assay. It is filed as cell-based. The note with it: Homo sapiens, 48 h. On the procedure:
as §1

Series [4] relates to Molt4. Put plainly: Trypan blue dye exclusion cell viability assay. It is filed as cell-based. The note with it: Homo sapiens, MOLT-4, 48 h. On the procedure: as §1
The test system of series [5] is Nalm6. Put plainly: Trypan blue dye exclusion cell viability assay. The class given is cell-based. The note with it: Homo sapiens, NALM-6, 48 h. On the procedure: as §1
The test system of series [6] is Reh. Briefly: Trypan blue dye exclusion cell viability assay. It is filed as cell-based. The note with it: Homo sapiens, 48 h. The procedure: as §1
Series [7] relates to SUDHL8. Put plainly: Trypan blue dye exclusion cell viability assay. It is filed as cell-based. To be noted: Homo sapiens, SU-DHL-8, 48 h. On the procedure: as §1
Series [8] deals with mouse embryonic fibroblast cells (MEF). Briefly: Trypan blue dye exclusion cell viability assay. The class given is cell-based. To be noted: 48 h. The procedure:
as §1

For series [9], the system named is peripheral blood mononuclear cells (PBMC). Briefly: Trypan blue dye exclusion cell viability assay. It is filed as cell-based. To be noted: 48 h. The procedure: as §1
Series [10] has as its system A549 cells. Put plainly: Cell cycle phase distribution by flow cytometry. To be noted: A549, 5 μM, 6 to 24 h. The class given is cell-based, human. The procedure:
Cell cycle analysis by flow cytometry was performed as previously described. Briefly, 75,000 cells/ml (A549) were seeded in 6 well plates and grown in serum free medium for 18 h. After synchronisation, the cells were treated with 5 μM of SS28 (6, 12, 18, 24 and 30 h) and cells were processed as described before. Similarly, CEM cells (75,000 cells/ml) were treated with SS28 (2 μM) and harvested (6, 12, 18, 24 and 30 h) and processed. Following fixation, cells were resuspended in PBS and stained with propidium iodide and evaluated in a flow cytometer (FACS Calibur, Becton Dickinson) using Cell Quest Pro software using excitation 488 nm laser and emission at 560/570 nm. A minimum of 10,000 cells were acquired per sample and histograms were analysed using WinMDI 2.8 software.
For orientation: Flow cytometry measures light scatter and fluorescence of single cells or particles in a stream.

Series [11] relates to CEM cells. Briefly: Intracellular ROS production (H2DCFDA, flow cytometry). It is filed as cell-based, Human. To be noted: 5 to 60 min. The procedure:
Intracellular ROS generation in cells was assessed using the oxidation-sensitive fluorescent probe 2,7-dichlorodihydro fluorescein diacetate (H2DCFDA) as previously described. CEM cells were treated with SS28 (5 μM) for 5, 10, 15, 30 and 60 min, harvested, washed and incubated with H2DCFDA (30 min at 37 °C) and then fluorescence intensity was analyzed by flow cytometry. H2O2 was used as the positive control.

For series [12], the system named is CEM cells. Put plainly: Mitochondrial membrane potential (JC-1 staining, flow cytometry). It is filed as cell-based, Human. The note with it: CEM, 1, 5, 10, 20 μM, 48 h. The procedure: Flow cytometric analysis of cells stained with JC-1 was used to measure changes in mitochondrial transmembrane potential as described. Briefly, cells were seeded at a density of 1 × 10^5 cells/ml and treated with SS28 (1, 5, 10 and 20 μM). After 48 h, cells were harvested, washed and incubated with JC-1 (5,5′,6,6 tetrachloro-1,1′,3,3′-tetraethyl benzimidazol carbocyanine iodide; Calbiochem, USA) for 15 min. 2,4-Dinitrophenol-treated cells (2,4-DNP) served as the positive control. Cells were processed and analyzed by flow cytometry using CellQuest pro software with an excitation at 488 nm laser and emission at 530 nm. JC-1 monomers emit at 530 nm and J-aggregates emit at 590 nm.

The test system of series [13] is CEM cells. Briefly: Immunoblotting of cell cycle and apoptotic proteins. It is filed as cell-based, Human. The note with it: 5 μM, 24, 48 and 72 h. On the procedure: Cell lysate was prepared after treating with SS28 (5 μM for 24, 48 and 72 h) from CEM and A549 cell lines. In brief, cells were harvested, washed with PBS, resuspended in lysis buffer (RIPA, 25 mM Tris (pH 7.6), 150 mM NaCl, 1% NP-40, 1% sodium deoxycholate and 0.1% SDS) containing protease inhibitors. The protein lysate was cleared by centrifugation (14,000 rpm, for 15 min). The protein concentration in the supernatant was determined using the Bradford’s assay.
For western blot analysis, ~40 μg proteins were resolved over 8–10% SDS–polyacrylamide gel[60][61][62]. Following gel electrophoresis, proteins were transferred to PVDF membrane (Millipore, USAQ9). The primary antibodies used were against Caspase 3, Caspase 9, p73, p53, KU70, KU80, Cyclin B1, CDK6, PARP1 and Actin (Santa Cruz Biotechnology, USA). The membrane was incubated with appropriate HRP-conjugated secondary antibody (2 h at 4° C). The blots were developed using chemiluminescent solution (Immobilon^TM western, Millipore) and scanned by gel documentation system (LAS 3000, FUJI, Japan). Blots were stripped subsequently as per standard protocols and reprobed with anti β-Actin antibody.

The nature of series [14]: In vivo pharmacokinetics, HPLC of plasma. On the set-up: species or system BALB/c mice. To be noted: mice, intraperitoneal, 15 mg/kg. On the procedure:
Control and SS28 (15 mg/kg b.wt.) treated BALB/c mice were sacrificed and blood was collected at various time points (15, 30 min, 1 and 2 h; 2 each/time point) as described. Plasma (50 μl) was then extracted with acetonitrile, centrifuged (3,000 × g for 15 min) to remove precipitated proteins and the resulting supernatants were analyzed using HPLC (Waters, USA).
Standard solution of SS28 was prepared by dissolving increasing concentration (25 to 100 μM) of the compound in acetonitrile. Standard calibration curves were plotted using peak area against the concentration of the compound and the retention time of the compound was also determined. Plasma concentrations of the treated groups were extrapolated from standard curves constructed by linear regression in Graph-Pad Prism 4.0 software (GraphPad Software, Inc.).

Consider `COc1cc(/C=C/c2ccc(C)cc2)cc(OC)c1OC` [SS28, (E)-1,2,3-trimethoxy-5-(4-methylstyryl)benzene], for which the IC50 in series [1] came to 5.2 µM; in series [2], 2.6 µM; in series [3], 32.4 µM; in series [4], 5.1 µM; in series [5], 21 µM; in series [6], 7.9 µM. The IC50 in series [7] is 2.7 µM; in series [8], 5 µM; in series [9], greater than 35 µM. Moreover, the cell cycle distribution entry in series [10] is reported as “significant accumulation of cells at G2/M phase”. For the same compound, the “intracellular ROS production” value in series [11] is given as “did not show generation of ROS”. Also, the “mitochondrial membrane potential (JC-1 fluorescence)” value in series [12] was “concentration dependant increase in the green fluoresced cells”. For the same compound, in series [13], the “Caspase 3” value is reported as “showed activation”. The “Caspase 9” value in series [13] is reported as “increase in the cleaved Caspase 9 level”. Also, the PARP1 entry in series [13] is “activation of PARP1”. Further, the “expression level of Cdk6” value in series [13] was “increased at 24 h followed by a decrease at 48 and 72 h”. In addition, the “expression levels of p53” value in [13] is recorded as “upregulation of p53 at 24 h time point followed by a decrease in the later time points”. Besides, the “level of Cyclin B1” value in series [13] was “increased at 48 h time point in CEM cells followed by a decrease at 72 h”. For the same compound, the “level of SS28 in the plasma” value is reported as “detectable” in series [14] (15 min and 1 h post-treatment); “significant increase” in series [14] (30 min after the injection); “significant decrease” in [14] (after 1 h of treatment).
